Experimental findings from patent publication US7491721B2, “Antimycobacterial pharmaceutical composition” (priority 2004, dated 2009) are described below.

≈ marks a conversion by molar mass, not a printed value. Where two headings read alike, the source gives them in different places.

One experiment relates to M. tuberculosis isolates. Kind of experiment: microbe, parasite or virus in culture. The note with it: for MIC50 / MIC90: Mycobacterium tuberculosis; for MIC50: read-out: MIC against M. tuberculosis isolates, MIC50; for MIC90: read-out: MIC against M. tuberculosis isolates, MIC90. Format: cell-based, Mycobacterium tuberculosis.
The next experiment concerns resistant strain of MTB. Format: in vivo, Mycobacterium tuberculosis. The note with it: for dose giving 2 log reduction in the organs: animals infected with resistant strains.
For experiment [1], the system named is sensitive/resistant strains of M. tuberculosis. As to the kind of experiment: Murine model of pulmonary tuberculosis, text statements not split by strain. Format: in vivo, Mycobacterium tuberculosis. The note with it: monotherapy.
Setting [2] is: combination study, one month, doses mg/kg: (I) 25.0 where present, INH 25.0, RIF 20.0, PYR 150.0, ETH 100.0.
The mark [3] stands for this setting: combination study, three months, doses mg/kg: (I) 25.0 where present, INH 25.0, RIF 20.0, PYR 150.0, ETH 100.0.
Where [4] appears, read: combination study, two months, doses mg/kg: (I) 25.0 where present, INH 25.0, RIF 20.0, PYR 150.0, ETH 100.0.
Setting [5] is: monotherapy 12.5 mg/kg, 8 Weeks Treatment (two months).
Where [6] appears, read: monotherapy 12.5 mg/kg, 12 Weeks Treatment (three months).
Where [7] appears, read: monotherapy 12.5 mg/kg, one month of treatment.
Where [8] appears, read: monotherapy 25 mg/kg, 8 Weeks Treatment (two months).
Where [9] appears, read: monotherapy 25 mg/kg, 12 Weeks Treatment (three months).
[10] abbreviates: monotherapy 25 mg/kg, one month of treatment.
Setting [11] is: monotherapy 50 mg/kg, 8 Weeks Treatment (two months).
Where [12] appears, read: monotherapy 50 mg/kg, 12 Weeks Treatment (three months).
Where [13] appears, read: monotherapy 50 mg/kg, one month of treatment.

For `CO[C@H]1/C=C/O[C@@]2(C)Oc3c(C)c(O)c4c(O)c(c(/C=N/N5CCN(C)CC5)c(O)c4c3C2=O)NC(=O)/C(C)=C\C=C\[C@H](C)[C@H](O)[C@@H](C)[C@@H](O)[C@@H](C)[C@H](OC(C)=O)[C@@H]1C` [Rifampicin], the MIC50 in the experiment with M. tuberculosis isolates worked out at 4 µg/mL (≈ 4.86 µM). The MIC90 in the experiment on M. tuberculosis isolates was above 16 µg/mL. Besides, the “Mean Log10CFU in organs of mice infected with resistant strain of MTB, Lung” value (shortened to “Mean Log10CFU in organs of mice infected … Lung”) is given as 3.05 ± 0.43 Log10CFU in the experiment with resistant strain of MTB (setting [2]), 0.94 ± 1.04 Log10CFU with resistant strain of MTB (setting [3]) and 2.45 ± 1.15 Log10CFU in the experiment on resistant strain of MTB (setting [4]). In addition, the “Mean Log10CFU in organs of mice infected with resistant strain of MTB, Spleen” value (shortened to “Mean Log10CFU in organs … Spleen”) with resistant strain of MTB (setting [2]) is on record as 2.44 ± 0.32 Log10CFU; with resistant strain of MTB (setting [3]), 1.78 ± 1.38 Log10CFU; in the experiment with resistant strain of MTB (setting [4]) it was 2.60 ± 0.59 Log10CFU.

As for `Cc1c(CN2CCN(c3cccc(C(F)(F)F)c3)CC2)cc(-c2ccccc2)n1NC(=O)c1ccncc1` [Compound of formula (I)], the MIC50 with M. tuberculosis isolates came to 0.12 µg/mL. In the experiment with M. tuberculosis isolates, the MIC90 is 0.25 µg/mL. In addition, the “MIC against M. tuberculosis isolates, Range” value with M. tuberculosis isolates (approximately 200 sensitive and resistant clinical isolates) is 0.12 to 0.5 µg/mL. Besides, the “dose giving 2 log reduction in the organs” value in the experiment on resistant strain of MTB is given as 12.5 mg/kg. For the same compound, the “Mean Log10CFU in organs of mice infected … Lung” value in the experiment with resistant strain of MTB (setting [2]) came out at 2.86 ± 0.37 Log10CFU; in the experiment on resistant strain of MTB (setting [3]) it was 1.30 ± 1.02 Log10CFU; in the experiment on resistant strain of MTB (setting [4]), 2.37 ± 0.81 Log10CFU; with resistant strain of MTB (setting [5]), 3.32 ± 0.6 Log10CFU; with resistant strain of MTB (setting [6]) it was 2.51 ± 0.18 Log10CFU; with resistant strain of MTB (setting [7]), 2.97 ± 0.53 Log10CFU. For the same compound, the “Mean Log10CFU in organs of mice infected … Lung” value in the experiment on resistant strain of MTB (setting [8]) is recorded as 2.83 ± 0.66 Log10CFU; with resistant strain of MTB (setting [9]) it was 1.86 ± 0.97 Log10CFU; with resistant strain of MTB (setting [10]), 2.70 ± 0.36 Log10CFU; in the experiment with resistant strain of MTB (setting [11]), 2.51 ± 0.72 Log10CFU; in the experiment with resistant strain of MTB (setting [12]) it was 1.79 ± 0.92 Log10CFU; in the experiment on resistant strain of MTB (setting [13]) it was 2.59 ± 0.22 Log10CFU. In addition, the “Mean Log10CFU in organs … Spleen” value worked out at 2.25 ± 0.18 Log10CFU with resistant strain of MTB (setting [2]); 1.64 ± 1.12 Log10CFU in the experiment on resistant strain of MTB (setting [3]); 2.52 ± 0.48 Log10CFU in the experiment on resistant strain of MTB (setting [4]); 3.1 ± 1.13 Log10CFU in the experiment with resistant strain of MTB (setting [5]); 2.6 ± 0.34 Log10CFU in the experiment with resistant strain of MTB (setting [6]); 3.02 ± 0.22 Log10CFU with resistant strain of MTB (setting [7]). For the same compound, the “Mean Log10CFU in organs … Spleen” value stood at 2.61 ± 0.56 Log10CFU in the experiment on resistant strain of MTB (setting [8]); 1.79 ± 0.92 Log10CFU in the experiment on resistant strain of MTB (setting [9]); 2.54 ± 0.20 Log10CFU in the experiment on resistant strain of MTB (setting [10]); 2.37 ± 0.61 Log10CFU with resistant strain of MTB (setting [11]); 1.69 ± 0.88 Log10CFU in the experiment with resistant strain of MTB (setting [12]); 2.32 ± 0.39 Log10CFU in the experiment on resistant strain of MTB (setting [13]). Also, the “reduction in viable bacilli in the target organs as compared to control animals” value in experiment [1] (one month (Table III)) is listed as above 2 log. Further, the “animals with complete absence of mycobacterium” value in experiment [1] (treated for three months) turned out to be 33%.

With `NNC(=O)c1ccncc1` [Isoniazid], in the experiment with M. tuberculosis isolates, the MIC50 was 4 µg/mL (≈ 29.2 µM). Besides, the MIC90 in the experiment with M. tuberculosis isolates is above 16 µg/mL. Moreover, the “dose giving 2 log reduction in the organs” value in the experiment on resistant strain of MTB was above 50 mg/kg. In addition, the “Mean Log10CFU in organs of mice infected … Lung” value in the experiment on resistant strain of MTB (setting [2]) is recorded as 5.23 ± 0.27 Log10CFU; in the experiment with resistant strain of MTB (setting [3]), 5.37 ± 0.35 Log10CFU; with resistant strain of MTB (setting [4]), 5.15 ± 0.42 Log10CFU; in the experiment on resistant strain of MTB (setting [5]), 6.01 ± 0.9 Log10CFU; in the experiment on resistant strain of MTB (setting [6]), 5.1 ± 0.7 Log10CFU; in the experiment with resistant strain of MTB (setting [7]), 5.47 ± 0.54 Log10CFU. Besides, the “Mean Log10CFU in organs of mice infected … Lung” value in the experiment on resistant strain of MTB (setting [8]) is reported as 5.91 ± 0.35 Log10CFU; in the experiment on resistant strain of MTB (setting [9]), 4.79 ± 0.55 Log10CFU; with resistant strain of MTB (setting [10]) it was 5.34 ± 0.34 Log10CFU; in the experiment on resistant strain of MTB (setting [11]) it was 5.42 ± 0.74 Log10CFU; with resistant strain of MTB (setting [12]), 4.76 ± 0.20 Log10CFU; with resistant strain of MTB (setting [13]) it was 4.77 ± 0.61 Log10CFU. Besides, the “Mean Log10CFU in organs … Spleen” value in the experiment on resistant strain of MTB (setting [2]) was 4.61 ± 0.43 Log10CFU; in the experiment on resistant strain of MTB (setting [3]), 5.19 ± 0.65 Log10CFU; in the experiment with resistant strain of MTB (setting [4]), 5.36 ± 0.84 Log10CFU; in the experiment on resistant strain of MTB (setting [5]), 5.88 ± 0.41 Log10CFU; in the experiment with resistant strain of MTB (setting [6]), 5.72 ± 0.17 Log10CFU; in the experiment on resistant strain of MTB (setting [7]), 5.01 ± 0.45 Log10CFU. In addition, the “Mean Log10CFU in organs … Spleen” value with resistant strain of MTB (setting [8]) was 5.7 ± 0.34 Log10CFU; in the experiment with resistant strain of MTB (setting [9]), 5.62 ± 0.63 Log10CFU; with resistant strain of MTB (setting [10]), 4.97 ± 0.52 Log10CFU; with resistant strain of MTB (setting [11]), 5.1 ± 0.61 Log10CFU; in the experiment with resistant strain of MTB (setting [12]), 5.64 ± 066 Log10CFU; in the experiment on resistant strain of MTB (setting [13]), 4.83 ± 0.68 Log10CFU.
